Laboratory results from article PMC8241045, “Improving anti-tumor activity of sorafenib tosylate by lipid- and polymer-coated nanomatrix” (Drug Delivery, 2017).
≈ marks a conversion by molar mass, not a printed value. Structures can show the parent of a compound that is named as a salt. Where two headings read alike, the source gives them in different places. Values belong to the compound of their own block, whether it stands above or below them.

Tests used:
[1] = Solubility in distilled water (shake-flask, HPLC); format: physicochemical; conditions: 37 °C, thermodynamic from solid
[2] = cited from earlier work
MDA-MB-231 cells = experiment: In vitro cytotoxicity, sulforhodamine B assay; format: cell-based; conditions: Homo sapiens, 48 h, SRB assay, n = 3
Protocol: The cytotoxicity of MSNM@SFN against MDA-MB-231 cells was measured by sulforhodamine B assay (SRB assay). Briefly, MDA-MB-231 cells (1 × 10^4 cells per well) were seeded in a 96-well plate and grown in medium for 24 h. Then, the cells were treated with cell culture medium containing the different amounts of MSNM@SFN for 48 h at 37 °C. The cell viability was determined by SRB assay. Absorbance was measured at 540 nm using a 96-well plate reader (model 680; Bio-Rad Laboratories, Hercules, CA). The survival percentages were calculated using the formula: survival % = (A540 nm for the treated cells/A540 nm for the control cells) × 100%, where A540 nm is the absorbance value. Each assay was carried out in triplicate. Finally, dose–effect curves were constructed and IC50 values were calculated.

[3] = very low aqueous solubility in GI fluids, high permeability; cited from earlier work

solubility at 48 h ([1]; water, read-out: Solubility of PTX): 0.17 ± 0.02 µg/mL (≈ 0.199 µM)
Compound: CC(=O)O[C@H]1C(=O)[C@@]2(C)[C@H]([C@H](OC(=O)c3ccccc3)[C@]3(O)C[C@H](OC(=O)[C@H](O)[C@@H](NC(=O)c4ccccc4)c4ccccc4)C(C)=C1C3(C)C)[C@]1(OC(C)=O)CO[C@@H]1C[C@@H]2O [PTX, paclitaxel]

solubility at 48 h ([1]; 48 h, read-out: Solubility of SFN): < 0.1 µg/mL
Compound: CNC(=O)c1cc(Oc2ccc(NC(=O)Nc3ccc(Cl)c(C(F)(F)F)c3)cc2)ccn1 [SFN, Sorafenib tosylate]
LogP [2]: 3.8
IC50 (MDA-MB-231 cells): 5.84 ± 0.17 µM
BCS class [3]: BCS II

solubility at 48 h ([1]; water, read-out: Solubility of SN38): < 0.01 µg/mL
Compound: CCc1c2c(nc3ccc(O)cc13)-c1cc3c(c(=O)n1C2)COC(=O)[C@]3(O)CC [SN38, 7-ethyl-10-hydroxycamptothecin]
